Data from patent publication US10273279B2, “Protease activated receptor-1 (PAR1) derived cytoprotective polypeptides and related methods” (THE SCRIPPS RESEARCH INSTITUTE, priority 2011, dated 2019).
Changes are numbered by the printed parent chain. Entries after “also recorded” stand apart in the source; their conditions may differ.

How the values were obtained:
SEAP-PAR1 [1] = molecular target: T1, SEAP-PAR1 (Homo sapiens, UniProt P25116, R41Q); assay: SEAP-PAR1 cleavage reporter on transfected HEK-293 cells (SEAP release); assay type: cell-based; conditions: in the presence of EPCR
T1 construct: we created a full-length PAR-1 construct linked at the N-terminus to an alkaline phosphatase reporter group (SEAP); expressed in transfected cells
T1 sequence (P25116 22-425 R41Q): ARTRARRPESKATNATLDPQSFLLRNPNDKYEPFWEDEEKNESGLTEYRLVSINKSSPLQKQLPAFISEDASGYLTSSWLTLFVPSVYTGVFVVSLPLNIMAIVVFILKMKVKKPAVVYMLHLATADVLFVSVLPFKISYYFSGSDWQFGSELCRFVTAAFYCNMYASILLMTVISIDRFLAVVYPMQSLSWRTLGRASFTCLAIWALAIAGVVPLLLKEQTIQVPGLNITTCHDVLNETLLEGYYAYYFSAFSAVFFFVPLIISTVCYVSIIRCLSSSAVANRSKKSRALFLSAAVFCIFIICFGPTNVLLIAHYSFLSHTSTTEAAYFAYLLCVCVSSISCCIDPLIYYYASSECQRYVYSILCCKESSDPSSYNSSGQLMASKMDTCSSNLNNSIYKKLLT
Summary of the method: (§1)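 Stable HEK-293 cells expressing N-terminal SEAP-tagged PAR-1, alone or with wt-EPCR, grown to confluency, washed, then incubated 60 min with APC in HBSS with 1.3 mM CaCl2, 0.6 mM MgCl2, 0.1% BSA. Released SEAP measured with PNPP, corrected for no-APC background, expressed as percent of total membrane SEAP.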

SEAP-PAR1 [2] = molecular target: T2, SEAP-PAR1 (Homo sapiens, UniProt P25116, R41A); assay: as above; assay type: cell-based; conditions: in the absence of EPCR
T2 construct: we created a full-length PAR-1 construct linked at the N-terminus to an alkaline phosphatase reporter group (SEAP); expressed in transfected cells
T2 sequence (P25116 22-425 R41A): T1 sequence (P25116 22-425 R41Q) with Q20A
Summary of the method: as §1

SEAP-PAR1 [3] = molecular target: T3, SEAP-PAR1 (Homo sapiens, UniProt P25116, R41Q/R46Q); assay: as above; assay type: cell-based; conditions: cells with wt-EPCR
T3 construct: we created a full-length PAR-1 construct linked at the N-terminus to an alkaline phosphatase reporter group (SEAP); expressed in transfected cells
T3 sequence (P25116 22-425 R41Q/R46Q): T1 sequence (P25116 22-425 R41Q) with R25Q
Summary of the method: as §1

SEAP-PAR1 [4] = assay: as above; assay type: cell-based, human; conditions: in the absence of EPCR
Summary of the method: as §1

[5] = tested on: Rac1 in endothelial EA.hy.926 cells; assay: Rac1 activation (GST-PAK1 pull down of active GTP-Rac1); assay type: cell-based, human; conditions: peptides 50 μM, 30 or 180 min
Description: Some assays employed in this study were performed as follow. Rac1 activation. The pGEXTK-PAK1 70-117 construct encoding a GST fusion to p21-activated kinase (PAK-1)-binding domain (PBD) was kindly made available by Dr. J Chernoff (Addgene plasmid 12217). GST-PAK1 was purified from transformed BL21 (DE3) Escherichia coli using B-Per lysis buffer (Pierce) with lysozyme, DNAse 1 and Halt EDTA-free protease inhibitor cocktail (Pierce) on Glutathione-agarose according to the manufacturer's recommendation. Pull down of active Rac1 was performed as described in Pellegrin et al., Curr. Protoc. Cell Biol. 2008; Chapter 14:Unit 14.8. Briefly, endothelial EA.hy.926 cells (5*10^6 per plate) were grown in 100-mm dishes for 48 hr and serum starved overnight before addition of peptides (50 μM) for 30 or 180 min. Lysates (2 mg) were mixed with GST-PAK1 Glutathione-agarose (150 μg) and after washing active GTP-Rac1 was eluted from GST-PAK1 Glutathione-agarose by boiling in reducing SDS sample buffer (LI-COR). Active GTP-Rac1 was resolved on 12% SDS PAGE, transferred to Immobilon-FL PVDF membrane, and immunoblotted with a mouse anti-Rac1 antibody (BD Bioscience) and IRDye 800CW donkey anti-mouse secondary antibodies (LI-COR). Immunoblots were scanned on the Odyssey Imager (LI-COR). Quantification of integrated fluorescence intensity (K counts) was done using Odyssey Application Software v3.0 (LI-COR).

thrombin
cleavage of R41Q-SEAP-PAR1 (SEAP-PAR1 [1]): did not show any cleavage

APC: Activated Protein C, serine protease with anticoagulant and cytoprotective cell signaling activities
cleavage of R41A-SEAP-PAR1 (SEAP-PAR1 [2]): did not cleave
cleavage of R41Q/R46Q-SEAP-PAR1 (SEAP-PAR1 [3]): eliminated PAR-1 cleavage; also recorded: negligible
cleavage of wt-SEAP-PAR1 and R46Q-SEAP-PAR1 (SEAP-PAR1 [4]): did cleave

NPNDKYEPFWEDEEKNESGL (listed as Homo sapiens) [TR47-66]
activation of Rac1 [5]: induced APC-like activation of Rac1
